The source made the active and inactive calls. No rule for the calls is given here.
System: CCRIS mutagenicity, Ames/micronucleus/aberration tests
Assay: CCRIS mutagenicity studies
[1] = Test System: AMES SALMONELLA TYPHIMURIUM, Strain/Indicator: TA98, Metabolic Activation: NONE, Method: PREINCUBATION
[2] = Test System: AMES SALMONELLA TYPHIMURIUM, Strain/Indicator: TA98, Metabolic Activation: NONE, Method: STANDARD PLATE
[3] = Test System: AMES SALMONELLA TYPHIMURIUM, Strain/Indicator: TA98, Metabolic Activation: RAT, LIVER, S-9, AROCLOR 1254, Method: STANDARD PLATE
[4] = Test System: AMES SALMONELLA TYPHIMURIUM, Strain/Indicator: TA100, Metabolic Activation: NONE, Method: STANDARD PLATE
[5] = Test System: AMES SALMONELLA TYPHIMURIUM, Strain/Indicator: TA100, Metabolic Activation: RAT, LIVER, S-9, AROCLOR 1254, Method: STANDARD PLATE
[6] = Test System: AMES SALMONELLA TYPHIMURIUM, Strain/Indicator: TA100, Metabolic Activation: NONE, Method: PREINCUBATION

Nc1ccc(Nc2ccc([N+](=O)[O-])cc2)cc1
mutagenic call (Test System: AMES SALMONELLA TYPHIMURIUM, Strain/Indicator: TA98(NR), Metabolic Activation: NONE, Method: PREINCUBATION): inactive; negative
mutagenic call [1]: active; positive
mutagenic call (Test System: AMES SALMONELLA TYPHIMURIUM, Strain/Indicator: TA98, Metabolic Activation: RAT, LIVER, S-9, AROCLOR 1254, Method: PREINCUBATION): active; positive

C=COC(C)=O
mutagenic call (Test System: AMES SALMONELLA TYPHIMURIUM, Strain/Indicator: TA97, Metabolic Activation: NONE, Method: STANDARD PLATE): inactive; negative
mutagenic call (Test System: AMES SALMONELLA TYPHIMURIUM, Strain/Indicator: TA97, Metabolic Activation: RAT, LIVER, S-9, AROCLOR 1254, Method: STANDARD PLATE): inactive; negative
mutagenic call [2]: inactive; negative
mutagenic call [3]: inactive; negative
mutagenic call [4]: inactive; negative
mutagenic call [5]: inactive; negative
mutagenic call (Test System: AMES SALMONELLA TYPHIMURIUM, Strain/Indicator: TA102, Metabolic Activation: RAT LIVER S-9, PHENOBARBITAL AND 5,6-BENZOFLAVONE, Method: STANDARD PLATE): inactive; negative
mutagenic call (Test System: AMES SALMONELLA TYPHIMURIUM, Strain/Indicator: TA102, Metabolic Activation: RAT, LIVER, S-9, AROCLOR 1254, Method: PREINCUBATION): active; positive
mutagenic call (Test System: AMES SALMONELLA TYPHIMURIUM, Strain/Indicator: TA102, Metabolic Activation: RAT, LIVER, S-9, AROCLOR 1254, Method: STANDARD PLATE): inactive; negative
mutagenic call (Test System: AMES SALMONELLA TYPHIMURIUM, Strain/Indicator: TA2638, Metabolic Activation: RAT LIVER S-9, PHENOBARBITAL AND 5,6-BENZOFLAVONE, Method: STANDARD PLATE): inactive; negative
mutagenic call (Test System: Ames Salmonella typhimurium, Strain/Indicator: TA98, Metabolic Activation: None, Method: Preincubation): inactive; negative
mutagenic call (Test System: Ames Salmonella typhimurium, Strain/Indicator: TA98, Metabolic Activation: Rat, Liver, S9, Sodium phenobarbital and 5,6-benzoflavone (10%), Method: Preincubation): inactive; negative
mutagenic call (Test System: Ames Salmonella typhimurium, Strain/Indicator: TA100, Metabolic Activation: None, Method: Preincubation): inactive; negative
mutagenic call (Test System: Ames Salmonella typhimurium, Strain/Indicator: TA100, Metabolic Activation: Rat, Liver, S9, Sodium phenobarbital and 5,6-benzoflavone (10%), Method: Preincubation): inactive; negative
mutagenic call (Test System: Ames Salmonella typhimurium, Strain/Indicator: TA1535, Metabolic Activation: None, Method: Preincubation): inactive; negative
mutagenic call (Test System: Ames Salmonella typhimurium, Strain/Indicator: TA1535, Metabolic Activation: Rat, Liver, S9, Sodium phenobarbital and 5,6-benzoflavone (10%), Method: Preincubation): inactive; negative
mutagenic call (Test System: Ames Salmonella typhimurium, Strain/Indicator: TA1537, Metabolic Activation: None, Method: Preincubation): inactive; negative
mutagenic call (Test System: Ames Salmonella typhimurium, Strain/Indicator: TA1537, Metabolic Activation: Rat, Liver, S9, Sodium phenobarbital and 5,6-benzoflavone (10%), Method: Preincubation): inactive; negative
mutagenic call (Test System: Ames Salmonella typhimurium, Strain/Indicator: YG7108pin3ERb5, Metabolic Activation: None, Method: Standard plate): inactive; negative
mutagenic call (Test System: E. COLI, Strain/Indicator: WP2 (PKM101), Metabolic Activation: RAT LIVER S-9, PHENOBARBITAL AND 5,6-BENZOFLAVONE, Method: STANDARD PLATE): inactive; negative
mutagenic call (Test System: E. COLI, Strain/Indicator: WP2 UVRA (PKM101), Metabolic Activation: RAT LIVER S-9, PHENOBARBITAL AND 5,6-BENZOFLAVONE, Method: STANDARD PLATE): inactive; negative
mutagenic call (Test System: E. coli, Strain/Indicator: WP2uvrA/pKM101, Metabolic Activation: None, Method: Preincubation): inactive; negative
mutagenic call (Test System: E. coli, Strain/Indicator: WP2uvrA/pKM101, Metabolic Activation: Rat, Liver, S9, Sodium phenobarbital and 5,6-benzoflavone (10%), Method: Preincubation): inactive; negative
mutagenic call (Test System: MOUSE LYMPHOMA, Strain/Indicator: L5178Y (TK+/TK-), Metabolic Activation: NONE, Method: SUSPENSION/PLATE): active; positive. reevaluation of results: positive
mutagenic call (Test System: Mouse lymphoma, Strain/Indicator: L5178Y (tk+/tk-), Metabolic Activation: Rat, Liver, S-9, Aroclor 1254, Method: Suspension/plate): active; positive

Cc1cccc2cc3ccccc3cc12
mutagenic call [2]: inactive; negative
mutagenic call [3]: inactive; negative
mutagenic call [4]: inactive; negative
mutagenic call [5]: inactive; negative

Nc1nc2c([nH]c(=O)n2[C@@H]2O[C@H](CO)[C@@H](O)[C@H]2O)c(=O)[nH]1
mutagenic call [6]: inactive; negative

CC(C)C(C)C
mutagenic call (Test System: AMES SALMONELLA TYPHIMURIUM, Strain/Indicator: TA97, Metabolic Activation: HAMSTER, LIVER, S-9, AROCLOR 1254 (10 OR 30%), Method: PREINCUBATION): inactive; negative
mutagenic call (Test System: AMES SALMONELLA TYPHIMURIUM, Strain/Indicator: TA97, Metabolic Activation: NONE, Method: PREINCUBATION): inactive; negative
mutagenic call (Test System: AMES SALMONELLA TYPHIMURIUM, Strain/Indicator: TA97, Metabolic Activation: RAT, LIVER, S-9, AROCLOR 1254 (10 OR 30%), Method: PREINCUBATION): inactive; negative
mutagenic call (Test System: AMES SALMONELLA TYPHIMURIUM, Strain/Indicator: TA98, Metabolic Activation: HAMSTER, LIVER, S-9, AROCLOR 1254 (10%), Method: PREINCUBATION): inactive; negative
mutagenic call (Test System: AMES SALMONELLA TYPHIMURIUM, Strain/Indicator: TA98, Metabolic Activation: HAMSTER, LIVER, S-9, AROCLOR 1254 (30%), Method: DESICCATOR): inactive; negative
mutagenic call (Test System: AMES SALMONELLA TYPHIMURIUM, Strain/Indicator: TA98, Metabolic Activation: HAMSTER, LIVER, S-9, AROCLOR 1254 (30%), Method: PREINCUBATION): inactive; negative
mutagenic call (Test System: AMES SALMONELLA TYPHIMURIUM, Strain/Indicator: TA98, Metabolic Activation: NONE, Method: DESICCATOR): inactive; negative
mutagenic call [1]: inactive; negative
mutagenic call (Test System: AMES SALMONELLA TYPHIMURIUM, Strain/Indicator: TA98, Metabolic Activation: RAT, LIVER, S-9, AROCLOR 1254 (10%), Method: PREINCUBATION): inactive; negative
mutagenic call (Test System: AMES SALMONELLA TYPHIMURIUM, Strain/Indicator: TA98, Metabolic Activation: RAT, LIVER, S-9, AROCLOR 1254 (30%), Method: DESICCATOR): inactive; negative
mutagenic call (Test System: AMES SALMONELLA TYPHIMURIUM, Strain/Indicator: TA98, Metabolic Activation: RAT, LIVER, S-9, AROCLOR 1254 (30%), Method: PREINCUBATION): inactive; negative
mutagenic call (Test System: AMES SALMONELLA TYPHIMURIUM, Strain/Indicator: TA100, Metabolic Activation: HAMSTER, LIVER, S-9, AROCLOR 1254 (10%), Method: PREINCUBATION): inactive; negative
mutagenic call (Test System: AMES SALMONELLA TYPHIMURIUM, Strain/Indicator: TA100, Metabolic Activation: HAMSTER, LIVER, S-9, AROCLOR 1254 (30%), Method: DESICCATOR): inactive; negative
mutagenic call (Test System: AMES SALMONELLA TYPHIMURIUM, Strain/Indicator: TA100, Metabolic Activation: HAMSTER, LIVER, S-9, AROCLOR 1254 (30%), Method: PREINCUBATION): inactive; negative
mutagenic call (Test System: AMES SALMONELLA TYPHIMURIUM, Strain/Indicator: TA100, Metabolic Activation: NONE, Method: DESICCATOR): inactive; negative
mutagenic call [6]: inactive; negative
mutagenic call (Test System: AMES SALMONELLA TYPHIMURIUM, Strain/Indicator: TA100, Metabolic Activation: RAT, LIVER, S-9, AROCLOR 1254 (10%), Method: PREINCUBATION): inactive; negative
mutagenic call (Test System: AMES SALMONELLA TYPHIMURIUM, Strain/Indicator: TA100, Metabolic Activation: RAT, LIVER, S-9, AROCLOR 1254 (30%), Method: DESICCATOR): inactive; negative
mutagenic call (Test System: AMES SALMONELLA TYPHIMURIUM, Strain/Indicator: TA100, Metabolic Activation: RAT, LIVER, S-9, AROCLOR 1254 (30%), Method: PREINCUBATION): inactive; negative
mutagenic call (Test System: AMES SALMONELLA TYPHIMURIUM, Strain/Indicator: TA1535, Metabolic Activation: HAMSTER, LIVER, S-9, AROCLOR 1254 (10 OR 30%), Method: PREINCUBATION): inactive; negative
mutagenic call (Test System: AMES SALMONELLA TYPHIMURIUM, Strain/Indicator: TA1535, Metabolic Activation: NONE, Method: PREINCUBATION): inactive; negative
mutagenic call (Test System: AMES SALMONELLA TYPHIMURIUM, Strain/Indicator: TA1535, Metabolic Activation: RAT, LIVER, S-9, AROCLOR 1254 (10 OR 30%), Method: PREINCUBATION): inactive; negative

— PubChem BioAssay AID1259407 (Chemical Carcinogenesis Research Information System (CCRIS), 2018)
